# Assays:
# Assay in all cases: relative viability (nuclei count vs DMSO), 5 days (fraction); higher = more cells survive
# 4EGI-1 + Tozasertib = compound: O=C(O)C(Cc1ccccc1[N+](=O)[O-])=NNc1nc(-c2ccc(Cl)c(Cl)c2)cs1 (mixture of isomers) [4EGI-1] + Cc1cc(Nc2cc(N3CCN(C)CC3)nc(Sc3ccc(NC(=O)C4CC4)cc3)n2)n[nH]1 [Tozasertib] (partner 0.1 µM)
# How it was run: (§1)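 Relative viability divides the nuclei count in treated wells by that in vehicle wells. Lung cancer cell lines were seeded in 1536-well plates, dosed by pin tool the next day, and fixed and stained after 5 days in one step with final 0.05% Triton X-100, 1% formaldehyde and 1 ug/ml Hoechst. Dosing was a single drug or a fixed anchor-drug dose plus five library-drug doses (not always all listed) in √10 steps, and values are medians of duplicate plates imaged at 4×.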
# 4EGI-1 + Bortezomib = compound: O=C(O)C(Cc1ccccc1[N+](=O)[O-])=NNc1nc(-c2ccc(Cl)c(Cl)c2)cs1 (mixture of isomers) [4EGI-1] + CC(C)C[C@H](NC(=O)[C@H](Cc1ccccc1)NC(=O)c1cnccn1)B(O)O [Bortezomib] (partner 0.002 µM)
# How it was run: as §1
# XMD8-85 + Dasatinib = compound: CN1CCN(CC1)C2=CC(=C(C=C2)NC3=NC=C4C(=N3)N(C5=CC=CC=C5C(=O)N4C)C)OC [XMD8-85] + Cc1nc(Nc2ncc(C(=O)Nc3c(C)cccc3Cl)s2)cc(N2CCN(CCO)CC2)n1 [Dasatinib] (partner 0.075 µM)
# How it was run: as §1
# 4EGI-1 + Pemetrexed = compound: O=C(O)C(Cc1ccccc1[N+](=O)[O-])=NNc1nc(-c2ccc(Cl)c(Cl)c2)cs1 (mixture of isomers) [4EGI-1] + Nc1nc2[nH]cc(CCc3ccc(C(=O)N[C@@H](CCC(=O)O)C(=O)O)cc3)c2c(=O)[nH]1 [Pemetrexed] (partner 0.2 µM)
# How it was run: as §1
Cell Line,relative viability (4EGI-1 + Tozasertib; first compound 0.5 µM),relative viability (4EGI-1 + Tozasertib; first compound 1.581 µM),relative viability (4EGI-1 + Tozasertib; first compound 5 µM),relative viability (4EGI-1 + Tozasertib; first compound 15.81 µM),relative viability (4EGI-1 + Tozasertib; first compound 50 µM),relative viability (4EGI-1 + Bortezomib; first compound 0.5 µM),relative viability (4EGI-1 + Bortezomib; first compound 1.581 µM),relative viability (4EGI-1 + Bortezomib; first compound 5 µM),relative viability (4EGI-1 + Bortezomib; first compound 15.81 µM),relative viability (4EGI-1 + Bortezomib; first compound 50 µM),relative viability (XMD8-85 + Dasatinib; first compound 0.08 µM),relative viability (XMD8-85 + Dasatinib; first compound 0.253 µM),relative viability (XMD8-85 + Dasatinib; first compound 0.8 µM),relative viability (XMD8-85 + Dasatinib; first compound 2.53 µM),relative viability (XMD8-85 + Dasatinib; first compound 8 µM),relative viability (4EGI-1 + Pemetrexed; first compound 0.5 µM),relative viability (4EGI-1 + Pemetrexed; first compound 1.581 µM),relative viability (4EGI-1 + Pemetrexed; first compound 5 µM),relative viability (4EGI-1 + Pemetrexed; first compound 15.81 µM),relative viability (4EGI-1 + Pemetrexed; first compound 50 µM)
NCI-H1734,0.263,0.27,0.263,0.288,0.214,0.948,0.773,0.922,0.712,0.292,0.463,0.491,0.453,0.574,0.499,0.403,0.433,0.464,0.441,0.362
LCLC-103H,0.557,0.479,0.537,0.434,0.394,1.03,0.964,0.98,0.955,0.959,0.425,0.476,0.575,0.505,0.379,0.443,0.409,0.474,0.435,0.477
EMC-BAC-2,0.324,0.262,0.329,0.312,0.26,1.17,1.02,1.13,1.05,0.88,0.309,0.341,0.337,0.347,0.39,0.418,,0.466,0.482,0.323
COR-L23,0.215,0.145,0.189,0.157,0.0963,0.983,0.651,1.09,0.808,0.19,0.516,0.502,0.555,0.63,0.347,0.223,0.189,0.194,0.204,0.215
NCI-H460,0.538,,0.45,0.144,0.314,1.15,,1.08,0.913,0.0451,0.423,0.443,0.554,0.475,0.178,0.0637,0.0738,0.0637,0.0604,0.0616
HCC-366,0.131,0.0938,0.0608,0.0943,0.0321,1.12,0.841,1.04,1.09,0.19,0.552,0.828,0.642,0.74,0.601,0.154,0.18,0.184,0.147,0.111
NCI-H1755,0.625,0.569,0.525,0.486,0.355,1.06,0.94,0.918,0.802,0.441,0.409,0.432,0.434,0.482,0.353,0.424,0.428,0.417,0.561,0.351
NCI-H2087,0.272,0.261,0.227,0.164,0.167,1.04,0.782,0.882,0.726,0.335,0.953,0.802,0.959,0.79,0.472,0.651,0.648,0.637,0.637,0.481

# Reference: the supplement of paper PMC10307832
